Patent US11453664B2, “Thymoquinone/harmaline and related reaction products” (Ankh Life Sciences Limited, priority 2018, dated 2022)

Assays:
[1] = tested on: MIN-6 cell line; assay: Glucose stimulated insulin secretion assay, Example 5; assay type: cell-based, mouse; settings: MIN-6, glucose 2, 10 and 20 mM, 1 hour
Method: In this test, a glucose stimulated insulin secretion assay was performed using the MIN-6 cell line and compounds C1 and C2 of Example 4. The test details and assay conditions are set forth below.
(§1) The cells were washed with KRB containing 0.1% BSA and starved for 1 hour in 2 mM glucose-KRB/BSA at 37° C. in 5% CO2. Following starvation, the cells were treated with or without the compounds at varying glucose concentrations of 2 mM, 10, mM, and 20 mM in KRB/BSA for 1 hour at 37° C. in 5% CO2. The amount of secreted mouse insulin was measured in the KRB/BSA incubation buffer using the mouse insulin ELISA kit from Mercer EXPert Assays. The cells were then lysed for protein quantification. The data presented in FIGS. 5-6 illustrate the secreted insulin test results for glucose and diazoxide, while FIGS. 7-9 (compound C1) and 10-12 (compound C2) illustrate the secreted insulin test results using C1 and C2. The data presented in FIGS. 7-12 are presented as the fold changes in the secreted insulin per milligram protein per hour, compared to the cell control.

[2] = tested on: MIN-6 cell line; assay: Glucose stimulated insulin secretion assay, Example 6; assay type: cell-based, mouse; settings: MIN-6, 100 nM, 10 mM of glucose, 1 hour
Method: In this test, a glucose stimulated insulin secretion assay was performed using the MIN-6 cell line and a compound mixture of compounds VIIID and VIIIF (MW about 540), referred to as C3. The test details and assay conditions are set forth below.
as §1, with “data is” for “data”, “13 (gliclazide)” for “5-6 illustrate the secreted insulin test results for glucose”, “14-16 (C3)” for “diazoxide, while FIGS. 7-9 (compound C1) and 10-12 (compound C2) illustrate the secreted insulin test results using C1 and C2. The data presented in FIGS. 7-12 are presented”, “change” for “changes”

[3] = tested on: MIN-6 cell line; assay: Glucose stimulated insulin secretion assay, Example 7; assay type: cell-based, mouse; settings: 2 hours
Method: In this test, another glucose stimulated insulin secretion assay was performed using two test compounds, namely C1 (MW about 378) and C3 (MW about 540). The MIN-6 cell line was used and the test details and assay conditions are set forth below.
The cells were revived and maintained in T-flasks. Upon reaching the required confluency, the cells were seeded in 96-well plates. The seeded cells were serum-starved in the presence of glucose for 30 minutes at 37° C. in 5% CO2. Following starvation, the cells were treated with or without the compounds at the varying glucose concentrations in KRB for 2 hours at 37° C. in 5% CO2. The cell supernatants were collected and tested for insulin secretion using the mouse insulin ELISA kit from Mercer EXPert Assays.

[4] = tested on: NOD mouse model of diabetes; assay: NOD mouse model of diabetes, TQ 725 as single agent; assay type: in vivo, mouse (NOD/ShiLtJ)
Method: This test was designed to evaluate the in vivo activity of the TQ-harmaline reaction product (referred to as “TQ 725”), which was a mixture of compounds I-IV and VI (MW about 378), V and VII (MW about 360), and VIIID and VIIIF (MW about 540), as single agent in the NOD mouse model of diabetes. […] The female NOD mice show evidence of diabetes onset by age week 12 and 70% presenting with diabetes (non-fasting plasma glucose higher than 250 mg/dl) by age week 20. The significant endpoint is assessment of weekly blood glucose levels.
The pancreatic tissues from the test mice were assayed by conventional insulin staining according to the following ratings: 0—no staining on islet cells; 1—of islets with positive stains, stain cells are minimal in number; 2—of islets with positive stain, stain cells are less than 50% of the cells; 3—of the islets with positive stains, stain cells are greater than 50% of the cells.
FIGS. 1 and 2 illustrate the body weight and blood glucose level results collected during the test. In each of these Figures, graph A refers to Group 1, the vehicle control (PO) QD to end; graph B refers to Group 2, 725.001 100 mg/kg days 1-27, followed by 400 mg/kg days 28 to end (PO); graph C refers to Group 3, 725.001 200 mg/kg (PO) QD to end; and graph D refers to Group 4, metformin 600 mg/kg (in H2O) Ad libitum days 1-8, followed by 600 mg/kg (PO) QD days 9 to end.

[5] = Subsequent investigations of activity of the components of TQ 725; settings: context: diabetes; no method given

In the case of `CC1=NS(=O)(=O)c2cc(Cl)ccc2N1` [Diazoxide], the “effect on insulin secretion” value [1] is reported as “significant inhibition of insulin secretion”.
For `Cc1ccc(S(=O)(=O)NC(=O)NN2CC3CCCC3C2)cc1` (centres unmarked) [Gliclazide], the “effect on insulin secretion” value [2] was “enhanced insulin secretion”, the “insulin secretion at the lower glucose concentration” value ([3]; MIN-6, glucose 2 mM, 100 μM) was “enhanced insulin secretion was observed” and the “insulin secretion at the higher glucose concentration” value ([3]; MIN-6, glucose 25 mM) was “saturation effect”.
In the case of `CN(C)C(=N)N=C(N)N` [Metformin], the body weight ([4]; Group 4: 600 mg/kg, data not deemed reliable) is reported as “trended downwardly” and the “insulin staining of pancreatic tissues, mean value” ([4]; Group 4: ad libitum days 1-8, 600 mg/kg PO days 9-56, rating scale 0-3) is reported as 0.50.
In the case of `COc1ccc2c(c1)=NC1C(/C=C3/C=C(C(C)C)C(=O)C=C3C)=NCCC=21` (centres unmarked) [VII], the “relative activity among the components of TQ 725” value [5] is reported as “most active”.
In the case of `COc1ccc2c(c1)=NC1C(CC3(O)C=C(C(C)C)C(=O)C=C3C)=NCCC=21` (centres unmarked) [VI], the “relative activity among the components of TQ 725” value [5] is reported as “most active”.
